Test [1] deals with TYK2 (Homo sapiens (Human), UniProt P29597). The test can be described thus: Biochemical potency on Tyk2, TR-FRET LANCE Ultra kinase assay (compounds 1-92). The following applies: ATP at Km, read-out: Tyk2 inhibitory activity (pIC50 class) (converted). In a few lines:
(§1)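 TR-FRET (LANCE Ultra) phosphorylation of ULight-JAK-1 peptide, ATP at Km: JAK1/JAK2/JAK3/TYK2 peptide 30/50/20/10 nM, ATP 20/0.7/0.2/12 μM, enzyme 0.15/0.083/0.025/0.144 ng/μL. 11-point 5-fold series from 20 μM; 1.5 h RT, EDTA stop, Eu-anti-pTyr detection 1 h; IC50 by variable-slope fit.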
On the technique in general: In TR-FRET formats the signal depends on donor and acceptor labels being close together.

In test [2] the target is JAK 3 (Homo sapiens (Human), UniProt P52333). The test can be described thus: Biochemical potency on JAK3, TR-FRET LANCE Ultra kinase assay (compounds 1-92). The following applies: ATP at Km, read-out: JAK3 inhibitory activity (pIC50 class) (converted). Put shortly:
as §1

Test [3] deals with JAK 2 (Homo sapiens (Human), UniProt O60674). The test can be described thus: Biochemical potency on JAK2, TR-FRET LANCE Ultra kinase assay (compounds 1-92). As to conditions: ATP at Km, read-out: JAK2 inhibitory activity (pIC50 class) (converted). In a few lines:
as §1

The target of test [4] is JAK 1 (Homo sapiens (Human), UniProt P23458). The test can be described thus: Biochemical potency on JAK1, TR-FRET LANCE Ultra kinase assay (compounds 1-92). As to conditions: ATP at Km, read-out: JAK1 inhibitory activity (pIC50 class) (converted). In a few lines:
as §1

Chain of JAK 1 (P23458 whole entry): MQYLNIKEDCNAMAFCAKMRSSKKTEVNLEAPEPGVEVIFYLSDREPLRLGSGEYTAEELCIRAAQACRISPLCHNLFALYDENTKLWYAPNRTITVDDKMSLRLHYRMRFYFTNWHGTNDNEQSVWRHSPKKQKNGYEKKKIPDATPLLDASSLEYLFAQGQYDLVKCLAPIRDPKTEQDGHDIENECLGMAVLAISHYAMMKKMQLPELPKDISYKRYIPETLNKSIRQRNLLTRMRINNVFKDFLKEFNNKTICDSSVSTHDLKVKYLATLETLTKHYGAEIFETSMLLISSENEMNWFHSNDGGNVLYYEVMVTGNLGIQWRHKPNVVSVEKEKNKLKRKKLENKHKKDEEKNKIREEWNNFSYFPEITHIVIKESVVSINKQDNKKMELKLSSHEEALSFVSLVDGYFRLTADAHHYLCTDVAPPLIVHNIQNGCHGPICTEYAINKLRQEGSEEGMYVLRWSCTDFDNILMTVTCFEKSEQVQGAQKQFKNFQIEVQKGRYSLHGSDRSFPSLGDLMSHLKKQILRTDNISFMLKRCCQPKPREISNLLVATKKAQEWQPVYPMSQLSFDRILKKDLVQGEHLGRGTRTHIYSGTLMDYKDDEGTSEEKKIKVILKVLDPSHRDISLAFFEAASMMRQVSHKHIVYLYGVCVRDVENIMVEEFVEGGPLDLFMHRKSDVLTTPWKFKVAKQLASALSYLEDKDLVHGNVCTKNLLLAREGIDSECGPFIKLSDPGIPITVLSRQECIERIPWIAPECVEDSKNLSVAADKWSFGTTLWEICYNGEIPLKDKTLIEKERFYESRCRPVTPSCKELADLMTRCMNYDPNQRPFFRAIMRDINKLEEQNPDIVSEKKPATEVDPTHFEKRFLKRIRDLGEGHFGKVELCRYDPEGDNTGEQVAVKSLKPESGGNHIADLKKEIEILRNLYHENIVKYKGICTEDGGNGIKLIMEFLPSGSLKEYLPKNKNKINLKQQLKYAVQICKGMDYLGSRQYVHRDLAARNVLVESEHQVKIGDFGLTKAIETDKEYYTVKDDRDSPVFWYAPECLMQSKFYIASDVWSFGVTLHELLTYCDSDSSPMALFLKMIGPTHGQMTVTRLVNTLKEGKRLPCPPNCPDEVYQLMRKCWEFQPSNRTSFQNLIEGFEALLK
Chain of TYK2 (P29597 whole entry): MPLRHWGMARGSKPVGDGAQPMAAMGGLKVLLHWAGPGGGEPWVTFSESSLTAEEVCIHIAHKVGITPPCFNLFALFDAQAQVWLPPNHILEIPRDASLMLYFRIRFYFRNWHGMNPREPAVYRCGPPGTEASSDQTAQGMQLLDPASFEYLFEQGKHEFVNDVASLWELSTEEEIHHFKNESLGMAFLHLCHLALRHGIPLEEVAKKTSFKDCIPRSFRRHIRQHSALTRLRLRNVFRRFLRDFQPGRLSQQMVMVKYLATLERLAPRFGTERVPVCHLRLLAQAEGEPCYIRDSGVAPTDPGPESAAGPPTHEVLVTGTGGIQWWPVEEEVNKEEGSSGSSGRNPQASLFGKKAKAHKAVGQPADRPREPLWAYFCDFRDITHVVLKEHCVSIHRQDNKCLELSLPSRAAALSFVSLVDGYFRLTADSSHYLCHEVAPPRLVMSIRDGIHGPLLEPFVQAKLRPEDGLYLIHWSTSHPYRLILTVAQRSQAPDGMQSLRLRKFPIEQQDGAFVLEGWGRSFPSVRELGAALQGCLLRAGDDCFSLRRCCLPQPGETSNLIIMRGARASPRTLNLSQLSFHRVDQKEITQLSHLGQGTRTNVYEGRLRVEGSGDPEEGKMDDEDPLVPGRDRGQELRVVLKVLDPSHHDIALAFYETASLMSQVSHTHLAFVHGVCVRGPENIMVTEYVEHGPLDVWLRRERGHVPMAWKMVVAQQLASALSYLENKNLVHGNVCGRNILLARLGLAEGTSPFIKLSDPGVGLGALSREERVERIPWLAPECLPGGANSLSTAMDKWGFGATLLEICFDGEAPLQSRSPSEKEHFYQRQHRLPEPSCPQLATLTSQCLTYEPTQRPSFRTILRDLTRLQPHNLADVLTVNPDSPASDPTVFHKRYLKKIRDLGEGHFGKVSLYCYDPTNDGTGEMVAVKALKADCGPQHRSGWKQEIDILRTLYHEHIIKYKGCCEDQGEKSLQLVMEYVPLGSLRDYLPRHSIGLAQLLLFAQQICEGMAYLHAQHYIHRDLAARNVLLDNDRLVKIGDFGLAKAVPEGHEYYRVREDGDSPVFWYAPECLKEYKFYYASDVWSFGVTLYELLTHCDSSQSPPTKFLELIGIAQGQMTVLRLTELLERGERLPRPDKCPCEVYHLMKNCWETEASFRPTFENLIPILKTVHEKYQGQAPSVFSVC
Chain of JAK 2 (O60674 whole entry): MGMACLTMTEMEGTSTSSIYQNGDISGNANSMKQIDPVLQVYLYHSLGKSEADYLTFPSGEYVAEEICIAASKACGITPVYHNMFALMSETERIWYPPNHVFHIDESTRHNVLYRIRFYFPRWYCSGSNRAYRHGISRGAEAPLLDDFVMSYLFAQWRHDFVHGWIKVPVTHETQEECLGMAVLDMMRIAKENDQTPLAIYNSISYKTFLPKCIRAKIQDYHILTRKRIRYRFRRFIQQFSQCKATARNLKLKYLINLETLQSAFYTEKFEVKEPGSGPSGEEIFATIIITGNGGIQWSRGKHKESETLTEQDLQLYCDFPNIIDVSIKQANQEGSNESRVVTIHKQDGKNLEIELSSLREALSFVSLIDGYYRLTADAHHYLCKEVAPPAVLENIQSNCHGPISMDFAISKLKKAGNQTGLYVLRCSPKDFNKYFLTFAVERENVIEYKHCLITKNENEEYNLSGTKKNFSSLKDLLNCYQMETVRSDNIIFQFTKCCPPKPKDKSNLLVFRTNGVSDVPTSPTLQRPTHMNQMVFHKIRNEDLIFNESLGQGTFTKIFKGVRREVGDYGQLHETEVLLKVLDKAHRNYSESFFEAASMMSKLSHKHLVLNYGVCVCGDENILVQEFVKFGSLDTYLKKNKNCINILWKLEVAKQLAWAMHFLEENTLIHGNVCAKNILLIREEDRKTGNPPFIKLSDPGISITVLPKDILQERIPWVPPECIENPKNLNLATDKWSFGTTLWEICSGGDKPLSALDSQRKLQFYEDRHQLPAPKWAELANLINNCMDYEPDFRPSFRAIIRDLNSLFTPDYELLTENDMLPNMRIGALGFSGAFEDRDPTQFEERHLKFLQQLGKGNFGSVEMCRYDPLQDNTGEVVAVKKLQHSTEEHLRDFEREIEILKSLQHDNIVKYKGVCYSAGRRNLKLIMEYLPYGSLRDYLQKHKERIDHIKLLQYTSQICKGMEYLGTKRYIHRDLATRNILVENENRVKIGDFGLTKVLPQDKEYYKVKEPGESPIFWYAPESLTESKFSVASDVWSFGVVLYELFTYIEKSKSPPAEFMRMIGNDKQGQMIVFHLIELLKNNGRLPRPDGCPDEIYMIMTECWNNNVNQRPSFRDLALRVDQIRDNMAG
Chain of JAK 3 (P52333 whole entry): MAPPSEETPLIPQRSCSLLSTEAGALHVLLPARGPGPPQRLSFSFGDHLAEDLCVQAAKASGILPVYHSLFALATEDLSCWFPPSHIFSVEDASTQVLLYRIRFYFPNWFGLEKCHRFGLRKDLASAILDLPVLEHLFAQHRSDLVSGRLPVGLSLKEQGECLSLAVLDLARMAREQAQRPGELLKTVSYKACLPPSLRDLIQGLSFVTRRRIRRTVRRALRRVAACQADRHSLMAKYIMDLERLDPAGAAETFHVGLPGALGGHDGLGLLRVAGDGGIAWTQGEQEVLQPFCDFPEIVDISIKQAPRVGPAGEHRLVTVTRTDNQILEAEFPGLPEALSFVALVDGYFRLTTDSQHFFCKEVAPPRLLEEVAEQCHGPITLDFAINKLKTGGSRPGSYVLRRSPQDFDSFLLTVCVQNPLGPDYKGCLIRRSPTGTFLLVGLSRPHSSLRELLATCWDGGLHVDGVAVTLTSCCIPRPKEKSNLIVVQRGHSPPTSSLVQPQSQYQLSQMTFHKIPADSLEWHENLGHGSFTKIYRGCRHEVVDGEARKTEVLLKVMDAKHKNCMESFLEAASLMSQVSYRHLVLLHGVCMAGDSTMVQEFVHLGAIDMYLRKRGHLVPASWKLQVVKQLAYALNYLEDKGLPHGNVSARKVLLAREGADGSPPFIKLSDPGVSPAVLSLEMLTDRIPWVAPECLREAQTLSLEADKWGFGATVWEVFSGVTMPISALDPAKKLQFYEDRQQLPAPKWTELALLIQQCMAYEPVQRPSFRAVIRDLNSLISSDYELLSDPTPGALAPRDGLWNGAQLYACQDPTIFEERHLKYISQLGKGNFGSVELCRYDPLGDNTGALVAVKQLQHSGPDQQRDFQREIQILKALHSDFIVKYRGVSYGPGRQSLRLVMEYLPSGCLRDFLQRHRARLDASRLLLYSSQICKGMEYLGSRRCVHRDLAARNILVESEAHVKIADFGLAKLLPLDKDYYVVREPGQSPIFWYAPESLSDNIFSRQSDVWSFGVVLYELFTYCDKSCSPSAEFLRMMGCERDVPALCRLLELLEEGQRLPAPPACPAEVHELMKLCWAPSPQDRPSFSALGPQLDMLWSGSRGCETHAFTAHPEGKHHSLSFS

For `COc1cc(NC(=O)c2ccccc2)cnc1-n1nc(C)c2cnc(-c3cnn4cccnc34)cc21` [Example 48, N-(5-methoxy-6-(3-methyl-6-(pyrazolo[1,5-a]pyrimidin-3-yl)-1H-pyrazolo[4,3-c]pyridin-1-yl)pyridin-3-yl)benzamide], the IC50 is 5.01 to 50.1 nM in test [1], not above 5.01 nM in test [2], not above 5.01 nM in test [3] and 5.01 to 50.1 nM in test [4].
Turning to `CNS(=O)(=O)c1ccc(-n2nc(C)c3cnc(-c4cnn5cccnc45)cc32)c(OC)c1` [Example 49, 3-methoxy-N-methyl-4-(3-methyl-6-(pyrazolo[1,5-a]pyrimidin-3-yl)-1H-pyrazolo[4,3-c]pyridin-1-yl)benzenesulfonamide], the IC50 in test [1] was more than 50.1 nM; in test [2] it was not above 5.01 nM; in test [3], not above 5.01 nM; in test [4], 5.01 to 50.1 nM.
For `CNS(=O)(=O)c1ccc(-n2nc(NCCN3CCOCC3)c3cnc(-c4cnn5cccnc45)cc32)c(OC)c1` [Example 50, 3-methoxy-N-methyl-4-(3-((2-morpholinoethyl)amino)-6-(pyrazolo[1,5-a]pyrimidin-3-yl)-1H-pyrazolo[4,3-c]pyridin-1-yl)benzenesulfonamide], the IC50 in test [1] is 5.01 to 50.1 nM; in test [2], not above 5.01 nM; in test [3], not above 5.01 nM; in test [4], not above 5.01 nM.
For `CNc1nn(-c2ccc(S(=O)(=O)NC)cc2OC)c2cc(-c3cnn4cccnc34)ncc12` [Example 51, 3-methoxy-N-methyl-4-(3-(methylamino)-6-(pyrazolo[1,5-a]pyrimidin-3-yl)-1H-pyrazolo[4,3-c]pyridin-1-yl)benzenesulfonamide], the IC50 was 5.01 to 50.1 nM in test [1], not above 5.01 nM in test [2], not above 5.01 nM in test [3] and not above 5.01 nM in test [4].
As to `CNS(=O)(=O)c1ccc(-n2nc(NCCCN(C)C)c3cnc(-c4cnn5cccnc45)cc32)c(OC)c1` [Example 52, 4-(3-((3-(dimethylamino)propyl)amino)-6-(pyrazolo[1,5-a]pyrimidin-3-yl)-1H-pyrazolo[4,3-c]pyridin-1-yl)-3-methoxy-N-methylbenzenesulfonamide], the IC50 in test [1] was 5.01 to 50.1 nM; in test [2], not above 5.01 nM; in test [3] it was not above 5.01 nM; in test [4] it was 5.01 to 50.1 nM.
On to `COc1cc(CNS(C)(=O)=O)ccc1-n1nc(NCCN2CCOCC2)c2cnc(-c3cnn4cccnc34)cc21` [Example 53, N-(3-methoxy-4-(3-((2-morpholinoethyl)amino)-6-(pyrazolo[1,5-a]pyrimidin-3-yl)-1H-pyrazolo[4,3-c]pyridin-1-yl)benzyl)methanesulfonamide], for which the IC50 is 5.01 to 50.1 nM in test [1], not above 5.01 nM in test [2], not above 5.01 nM in test [3] and not above 5.01 nM in test [4].
`COc1cc(CNS(C)(=O)=O)ccc1-n1nc(NCCN2CCCCC2)c2cnc(-c3cnn4cccnc34)cc21` [Example 54, N-(3-methoxy-4-(3-((2-(piperidin-1-yl)ethyl)amino)-6-(pyrazolo[1,5-a]pyrimidin-3-yl)-1H-pyrazolo[4,3-c]pyridin-1-yl)benzyl)methanesulfonamide]: the IC50 in test [1] is 5.01 to 50.1 nM; in test [2] it was 5.01 to 50.1 nM; in test [3] it was not above 5.01 nM; in test [4], 5.01 to 50.1 nM.
For `CNc1nn(-c2ccc(CNS(C)(=O)=O)cc2OC)c2cc(-c3cnn4cccnc34)ncc12` [Example 55, N-(3-methoxy-4-(3-(methylamino)-6-(pyrazolo[1,5-a]pyrimidin-3-yl)-1H-pyrazolo[4,3-c]pyridin-1-yl)benzyl)methanesulfonamide], the IC50 in test [1] was 5.01 to 50.1 nM; in test [2] it was not above 5.01 nM; in test [3], not above 5.01 nM; in test [4], not above 5.01 nM.
In the case of `COc1cc(CNS(C)(=O)=O)ccc1-n1nc(NCCN(C)C)c2cnc(-c3cnn4cccnc34)cc21` [Example 56, N-(4-(3-((2-(dimethylamino)ethyl)amino)-6-(pyrazolo[1,5-a]pyrimidin-3-yl)-1H-pyrazolo[4,3-c]pyridin-1-yl)-3-methoxybenzyl)methanesulfonamide], the IC50 in test [1] was 5.01 to 50.1 nM; in test [2] it was not above 5.01 nM; in test [3] it was not above 5.01 nM; in test [4], not above 5.01 nM.
`CNc1nn(-c2cc(Cl)c(CNS(C)(=O)=O)cc2OC)c2cc(-c3cnn4cccnc34)ncc12` [Example 57, N-(2-chloro-5-methoxy-4-(3-(methylamino)-6-(pyrazolo[1,5-a]pyrimidin-3-yl)-1H-pyrazolo[4,3-c]pyridin-1-yl)benzyl)methanesulfonamide]: the IC50 in test [1] is 5.01 to 50.1 nM; in test [2], not above 5.01 nM; in test [3], not above 5.01 nM; in test [4] it was not above 5.01 nM.
`COc1cc(CNS(C)(=O)=O)c(Cl)cc1-n1nc(NCCN2CCOCC2)c2cnc(-c3cnn4cccnc34)cc21` [Example 58, N-(2-chloro-5-methoxy-4-(3-((2-morpholinoethyl)amino)-6-(pyrazolo[1,5-a]pyrimidin-3-yl)-1H-pyrazolo[4,3-c]pyridin-1-yl)benzyl)methanesulfonamide]: the IC50 was 5.01 to 50.1 nM in test [1], 5.01 to 50.1 nM in test [2], 5.01 to 50.1 nM in test [3] and not above 5.01 nM in test [4].
For the compound `COc1cc(CNS(C)(=O)=O)ccc1-n1nc(C(=O)NCCCN(C)C)c2cnc(-c3cnn4cccnc34)cc21` [Example 59, N-(3-(dimethylamino)propyl)-1-(2-methoxy-4-(methylsulfonamidomethyl)phenyl)-6-(pyrazolo[1,5-a]pyrimidin-3-yl)-1H-pyrazolo[4,3-c]pyridine-3-carboxamide], the IC50 in test [1] was 5.01 to 50.1 nM; in test [2], 5.01 to 50.1 nM; in test [3], 5.01 to 50.1 nM; in test [4], not above 5.01 nM.
Turning to `COc1cc(CNS(C)(=O)=O)ccc1-n1nc(CC#N)c2cnc(-c3cnn4cccnc34)cc21` [Example 60, N-(4-(3-(cyanomethyl)-6-(pyrazolo[1,5-a]pyrimidin-3-yl)-1H-pyrazolo[4,3-c]pyridin-1-yl)-3-methoxybenzyl)methanesulfonamide], the IC50 was 5.01 to 50.1 nM in test [1], not above 5.01 nM in test [2], not above 5.01 nM in test [3] and not above 5.01 nM in test [4].
As to `Cc1nn(-c2ccc(CNS(C)(=O)=O)cc2OC(F)F)c2cc(-c3cnn4cccnc34)ncc12` [Example 61, N-(3-(difluoromethoxy)-4-(3-methyl-6-(pyrazolo[1,5-a]pyrimidin-3-yl)-1H-pyrazolo[4,3-c]pyridin-1-yl)benzyl)methanesulfonamide], the IC50 in test [1] was 5.01 to 50.1 nM; in test [2] it was not above 5.01 nM; in test [3] it was not above 5.01 nM; in test [4], not above 5.01 nM.
With `COc1cc(C(C)NS(C)(=O)=O)ccc1-n1nc(C)c2cnc(-c3cnn4cccnc34)cc21` (centres unmarked) [Example 62, N-(1-(3-methoxy-4-(3-methyl-6-(pyrazolo[1,5-a]pyrimidin-3-yl)-1H-pyrazolo[4,3-c]pyridin-1-yl)phenyl)ethyl)methanesulfonamide], the IC50 was more than 50.1 nM in test [1], not above 5.01 nM in test [2], not above 5.01 nM in test [3] and not above 5.01 nM in test [4].
With `COc1cc(CNS(C)(=O)=O)ccc1-n1nc(C)c2cnc(-c3cnn4cccnc34)cc21` [Example 63, N-(3-methoxy-4-(3-methyl-6-(pyrazolo[1,5-a]pyrimidin-3-yl)-1H-pyrazolo[4,3-c]pyridin-1-yl)benzyl)methanesulfonamide], the IC50 was 5.01 to 50.1 nM in test [1], not above 5.01 nM in test [2], not above 5.01 nM in test [3] and not above 5.01 nM in test [4].
Take `COc1cc(CNS(=O)(=O)C2CC2)ccc1-n1nc(C)c2cnc(-c3cnn4cccnc34)cc21` [Example 64, N-(3-methoxy-4-(3-methyl-6-(pyrazolo[1,5-a]pyrimidin-3-yl)-1H-pyrazolo[4,3-c]pyridin-1-yl)benzyl)cyclopropanesulfonamide]: the IC50 was 5.01 to 50.1 nM in test [1], not above 5.01 nM in test [2], not above 5.01 nM in test [3] and not above 5.01 nM in test [4].
With `COc1cc(CN(C)S(C)(=O)=O)ccc1-n1nc(C)c2cnc(-c3cnn4cccnc34)cc21` [Example 65, N-(3-methoxy-4-(3-methyl-6-(pyrazolo[1,5-a]pyrimidin-3-yl)-1H-pyrazolo[4,3-c]pyridin-1-yl)benzyl)-N-methylmethanesulfonamide], the IC50 is 5.01 to 50.1 nM in test [1], not above 5.01 nM in test [2], not above 5.01 nM in test [3] and not above 5.01 nM in test [4].
For `COc1cc(CO)ccc1-n1nc(C)c2cnc(-c3cnn4cccnc34)cc21` [Example 66, (3-methoxy-4-(3-methyl-6-(pyrazolo[1,5-a]pyrimidin-3-yl)-1H-pyrazolo[4,3-c]pyridin-1-yl)phenyl)methanol], the IC50 in test [1] is more than 50.1 nM; in test [2], 5.01 to 50.1 nM; in test [3], 5.01 to 50.1 nM; in test [4] it was 5.01 to 50.1 nM.
As for `COc1cc(CN)ccc1-n1nc(C)c2cnc(-c3cnn4cccnc34)cc21` [Example 67, (3-methoxy-4-(3-methyl-6-(pyrazolo[1,5-a]pyrimidin-3-yl)-1H-pyrazolo[4,3-c]pyridin-1-yl)phenyl)methanamine], the IC50 in test [1], in test [2], in test [3] and in test [4] was more than 50.1 nM throughout.
